Assay results taken from patent US20020198160A1, “Compositions and methods for enhancing the bioavailability of pharmaceutical agents” (priority 2001, published 2002).
Where two headings read alike, the source gives them in different places. Each block holds one compound with its values, some of them ahead of it.

Experiments:
[1] = system: HCT15 cells (which express P-glycoprotein); test: Decrease of the IC50 of paclitaxel in HCT15 cells on adding a P-glycoprotein inhibitor; assay type: cell-based; conditions: lopinavir 5 μM added to paclitaxel
[2] = biological target: T1, P-glycoprotein (Homo sapiens, UniProt P08183); test: in vitro; conditions: Caco-2, pH 7.4
T1 sequence (P08183 whole entry): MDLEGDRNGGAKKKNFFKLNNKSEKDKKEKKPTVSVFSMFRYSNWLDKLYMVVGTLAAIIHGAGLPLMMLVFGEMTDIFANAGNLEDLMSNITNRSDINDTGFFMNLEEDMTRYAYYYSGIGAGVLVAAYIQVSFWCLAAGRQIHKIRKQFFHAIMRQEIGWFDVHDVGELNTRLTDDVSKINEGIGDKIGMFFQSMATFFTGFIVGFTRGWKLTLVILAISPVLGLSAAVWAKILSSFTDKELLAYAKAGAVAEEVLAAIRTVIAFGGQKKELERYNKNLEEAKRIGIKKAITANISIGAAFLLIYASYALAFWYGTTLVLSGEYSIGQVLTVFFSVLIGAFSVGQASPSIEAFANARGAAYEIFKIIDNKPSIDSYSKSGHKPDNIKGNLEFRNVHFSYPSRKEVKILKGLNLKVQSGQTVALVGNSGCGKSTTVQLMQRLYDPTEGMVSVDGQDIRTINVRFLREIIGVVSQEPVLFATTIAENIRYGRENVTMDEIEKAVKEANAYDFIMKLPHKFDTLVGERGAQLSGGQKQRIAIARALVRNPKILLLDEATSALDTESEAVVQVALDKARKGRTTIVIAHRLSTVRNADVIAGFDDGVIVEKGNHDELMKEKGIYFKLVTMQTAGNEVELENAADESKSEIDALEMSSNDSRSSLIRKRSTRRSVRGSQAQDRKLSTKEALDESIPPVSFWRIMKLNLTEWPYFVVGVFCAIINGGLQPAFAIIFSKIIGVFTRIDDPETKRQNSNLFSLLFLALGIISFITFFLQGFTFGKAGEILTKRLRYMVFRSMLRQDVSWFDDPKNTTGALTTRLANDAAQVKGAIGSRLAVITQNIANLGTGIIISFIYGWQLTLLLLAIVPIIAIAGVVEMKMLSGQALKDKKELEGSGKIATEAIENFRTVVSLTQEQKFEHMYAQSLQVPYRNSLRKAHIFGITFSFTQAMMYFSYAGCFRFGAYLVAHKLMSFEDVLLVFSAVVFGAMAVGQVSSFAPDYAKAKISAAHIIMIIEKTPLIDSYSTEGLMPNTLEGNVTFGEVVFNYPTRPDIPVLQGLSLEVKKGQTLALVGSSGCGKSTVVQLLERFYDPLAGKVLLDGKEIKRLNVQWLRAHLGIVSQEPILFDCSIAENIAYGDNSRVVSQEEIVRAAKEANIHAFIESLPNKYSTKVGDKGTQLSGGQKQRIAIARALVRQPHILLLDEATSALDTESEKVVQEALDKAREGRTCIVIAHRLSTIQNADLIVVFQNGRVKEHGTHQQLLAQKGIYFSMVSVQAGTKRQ
Experimental: (§1) The cells were grown and maintained in DMEM (Dulbecco's modified eagle's medium, purchased from Gibco/BRL, Grand Island, N.Y.) supplemented with 10% fetal bovine serum and 2 mM L-glutamine.
(§2) Cell cultures were maintained, antibiotic free, in a 37° C. incubator with 90% relative humidity in an atmosphere of 5% CO2. The cells were maintained in 10 cm^2 stock plates and seeded onto polycarbonate Transwell™ HTS filter inserts at 4×10^5 cells/mL. The cells were cultured on the filters for about 27-30 days. Caco-2 cells having passages between 40 and 110 were used for the studies.
(§3) The integrity of the cell monolayers was determined by measuring the paracellular transepithelial transport of the integrity marker, Lucifer yellow, which is commercially available from Sigma Chemical of St. Louis, Mo.
(§4) Stock concentrations (C0) of each of the P-glycoprotein inhibitors were treated similarly as dosed cells and were retained and sampled for starting dose. Aliquots for both the AP and the BL sides of the cell monolayers were taken at 2 hours, and such aliquots were analyzed by LSC Calculation of the apparent permeability by using the Artusson equation shown above. For the triplicate wells the P(app) is the mean of the three individual P(app) values for each well.

[3] = biological target: T1, P-glycoprotein
Experimental: as §1, §2, §3, §4

[4] = system: H460/T800 cells (which over express P-glycoprotein); test: Reduction of the IC50 of paclitaxel in paclitaxel resistant H460/T800 cells on adding lopinavir; assay type: cell-based
[5] = system: HCT15 cells (which express P-glycoprotein); test: Efflux of radiolabelled lopinavir, ritonavir and paclitaxel from HCT15 cells; assay type: cell-based; conditions: 1 μM loaded for 1 hour, FIG. 1
Experimental: The medium was aspirated and the cells were washed with PBS (phosphate buffered saline, available from Life Technologies, Rockvile, Md.). At harvest, the cells were washed once with PBS and the pellets were dissolved in 550 μl of 1N NaOH. The total protein was determined by Bio-Rad assay (available from Bio-Rad of Hercules, Ca.) and the total radioactivity was determined by LSC. Following normalization of the protein amount, cpm/μg protein for each time point was compared to the peak drug time 0.

[6] = biological target: T1, P-glycoprotein; test: in vitro; conditions: Caco-2
Experimental: as §1, §2, §3
(§5) The transport of vinblastine, which is the pharmaceutically active agent in these studies, was allowed to proceed for 120 minutes at 37° C. Stock concentrations (C0) of each of the P-glycoprotein inhibitors were treated similarly as dosed cells and were retained and sampled for starting dose. Aliquots for both the AP and the BL sides of the cell monolayers were taken at 2 hours, and such aliquots were analyzed by liquid scintillation counting (LSC) using a Packard Liquid Scintillation Counting machine. Calculation of the apparent permeability was done by using the following Artusson equation: [formula]
(§6) where dQ/dT is the flux rate (μg/sec), C0 is concentration of the starting material at t=0 (μg/mL), and A=the area of the monolayer (cm^2). For the triplicate wells the P(app) is the mean of the three individual P(app) values for each well.

[7] = biological target: T1, P-glycoprotein; test: Vinblastine transepithelial bi-directional transport across Caco-2 cell monolayers with or without P-glycoprotein inhibitors; conditions: Run 2, vinblastine 5 μM, inhibitor 10 μM
Experimental: as §1, §2, §3, §5, §6

[8] = Table 2B (printed Run 1), Caco-2, lopinavir or ritonavir 5 μM, CyA 10 μM, 120 minutes at 37° C., mean ± SD of triplicate wells
[9] = 120 minutes at 37° C., mean ± SD of triplicate wells

decrease in the IC50 of paclitaxel [1]: 9 fold | Papp A→B at 120 min, 5 μM [2]: 10.7 ± 0.58 ×10⁻⁶ cm/s | Papp B→A at 120 min, 5 μM [2]: 9.55 ± 2.1 ×10⁻⁶ cm/s | substrate for P-glycoprotein (conclusion from Tables 2A and 2B) ([3]; Caco-2 bi-directional permeability with or without cyclosporin A): not a substrate for P-glycoprotein | P(app) AP-BL [3, 8]: 18.72 ± 1.04 1 × 10(−6) cm/sec | P(app) BL-AP [3, 8]: 17.42 ± 4.37 1 × 10(−6) cm/sec | reduction of the IC50 of paclitaxel ([4]; lopinavir 5 μM with paclitaxel): 11 fold | reduction of the IC50 of paclitaxel ([4]; lopinavir 10 μM with paclitaxel): 21 fold
SMILES: Cc1cccc(C)c1OCC(=O)N[C@@H](Cc1ccccc1)[C@@H](O)C[C@H](Cc1ccccc1)NC(=O)[C@H](C(C)C)N1CCCNC1=O (relative stereo) [Lopinavir, [1S-[1R*,(R*),3R*,4R*]]-N-[4-[[(2,6-dimethylphenoxy)acetyl]amino]-3-hydroxy-5-phenyl-1-(phenylmethyl)pentyl]tetrahydro-alpha-(1-methylethyl)-2-oxo-(2H)-pyrimidine acetamide]
compound remained in the HCT15 cells ([5]; after 60 minutes): approximately 80%

Papp A→B at 120 min, 5 μM [6]: 0.91 ± 0.07 ×10⁻⁶ cm/s | Papp B→A at 120 min, 5 μM [6]: 17.7 ± 0.39 ×10⁻⁶ cm/s | efflux ratio at 120 min, 5 μM [6]: 19.5 | Ratio (BL-AP/AP-BL) [7]: 30.02 | P(app) AP-BL [7, 9]: 0.49 ± 0.00 1 × 10(−6) cm/sec | P(app) BL-AP [7, 9]: 14.71 ± 3.33 1 × 10(−6) cm/sec
SMILES: CC[C@]1(O)C[C@@H]2CN(CCc3c([nH]c4ccccc34)[C@@](C(=O)OC)(c3cc4c(cc3OC)N(C)[C@H]3[C@@](O)(C(=O)OC)[C@H](OC(C)=O)[C@]5(CC)C=CCN6CC[C@]43[C@@H]65)C2)C1 [Vinblastine, vinblastine]

SMILES: CC(C)c1nc(CN(C)C(=O)N[C@H](C(=O)N[C@@H](Cc2ccccc2)C[C@H](O)[C@H](Cc2ccccc2)NC(=O)OCc2cncs2)C(C)C)cs1 (relative stereo) [Ritonavir, [5S-(5R*,8R*,10R*,11R*)]-10-hydroxy-2-methyl-5-(1-methylethyl)-1-[2-(1-methylethyl)-4-thiazolyl]-3,6-dioxo-8,11-bis(phenylmethyl)-2,4,7,12-tetraazatridecan-13-oic acid, 5-thiazolylmethyl ester]
elimination (efflux) by the HCT15 cells ([5]; in 15 minutes): rapidly eliminated
